Source: patent US6737383B1, “Herbicidal oxadiazolidines” (priority 1999, dated 2004)

Experiments:
wheat = assay: Test B pre/postemergence wheat; assay type: in vivo, Triticum aestivum
In short: (§1)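 Herbicidal effect was estimated by eye on a ten-point control scale after plants spent twelve to sixteen days in a greenhouse following soil or foliar treatment. Foliar sprays targeted plants at one to four leaves; all doses were formulated in a non-phytotoxic solvent with surfactant.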

crabgrass = assay: Test B pre/postemergence crabgrass; assay type: in vivo, Digitaria sanguinalis
In short: as §1

soybean = assay: Test B pre/postemergence soybean; assay type: in vivo, Glycine max
In short: as §1

smallflower flatsedge = assay: Test B flood test smallflower flatsedge; assay type: in vivo, Cyperus difformis
In short: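 Read-out is a visual response score from 0 (no effect) to 10 (complete control), assigned by comparison with untreated controls. Treatment was applied at the 2-leaf stage, and plants stayed in the greenhouse for twelve to sixteen days before scoring.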

wild oat = assay: Test B pre/postemergence wild oat; assay type: in vivo, Avena fatua
In short: as §1

[1] = Postemergence, Rate 62 g/ha, scale 0 to 10, 0 is no effect, 10 is complete control
[2] = Postemergence, Rate 125 g/ha, scale of 0 to 10 where 0 is no effect and 10 is complete control
[3] = Preemergence, Rate 62 g/ha, scale of 0 to 10 where 0 is no effect and 10 is complete control
[4] = Preemergence, Rate 125 g/ha, scale of 0 to 10 where 0 is no effect and 10 is complete control
[5] = Preemergence, Rate 250 g/ha, scale 0 to 10 (0 no effect, 10 complete control)
[6] = Preemergence, Rate 500 g/ha, scale of 0 to 10 where 0 is no effect and 10 is complete control
[7] = Rate 500 g/ha, Postemergence, scale 0 to 10, 0 is no effect, 10 is complete control
[8] = Postemergence, Rate 250 g/ha, scale 0 to 10, 0 no effect, 10 complete control
[9] = Preemergence, Rate 62 g/ha, scale 0 to 10, 0 is no effect, 10 is complete control
[10] = Preemergence, Rate 125 g/ha, scale 0 to 10 (0 no effect, 10 complete control)
[11] = Preemergence, Rate 250 g/ha, scale of 0 to 10 where 0 is no effect and 10 is complete control
[12] = Preemergence, Rate 500 g/ha, scale 0 (no effect) to 10 (complete control)
[13] = Rate 125 g/ha, Postemergence, scale 0 to 10, 0 no effect, 10 complete control
[14] = Rate 125 g/ha, Postemergence section (flood test species), scale 0 to 10, 0 no effect, 10 complete control
[15] = flood test, listed under Postemergence, Rate 250 g/ha, scale 0 to 10, 0 no effect, 10 complete control
[16] = Rate 62 g/ha, Postemergence, scale 0 to 10 (0 no effect, 10 complete control)
[17] = Rate 125 g/ha, Postemergence, scale of 0 to 10 where 0 is no effect and 10 is complete control
[18] = Rate 250 g/ha, Postemergence, scale of 0 to 10 where 0 is no effect and 10 is complete control
[19] = Preemergence, Rate 62 g/ha, scale 0 to 10 (0 no effect, 10 complete control)
[20] = Rate 500 g/ha, Postemergence, scale 0 to 10, 0 no effect, 10 complete control

`CC(C)N(C(=O)n1oc(=O)n(CC2CCCCO2)c1=O)c1ccc(Cl)cc1` (stereo not drawn) [Compound 660] was tested, and the “Plant response rating, Wheat” value (wheat; [1]) was 0, the “Wheat plant response rating” value (wheat; [2]) was 0 and the “Wheat plant response rating” value (wheat; [3]) was 0. For the same molecule, the “Wheat plant response rating” value (wheat; [4]) was 0, the “Plant response rating, Wheat” value (wheat; [5]) was 0 and the “Plant response rating, Wheat” value (wheat; [6]) was 0. For the same molecule, the “Wheat plant response rating” value (wheat; [7]) was 0, the “Plant response rating, Crabgrass” value (crabgrass; [1]) was 0 and the “Crabgrass plant response rating” value (crabgrass; [2]) was 1. The “Crabgrass plant response rating” value (crabgrass; Postemergence, Rate 250 g/ha, scale of 0 to 10, 0 is no effect, 10 is complete control) was 5, the “Crabgrass plant response rating” value (crabgrass; [3]) was 4 and the “Crabgrass plant response rating” value (crabgrass; [4]) was 7. The “Plant response rating, Crabgrass” value (crabgrass; [5]) was 8, the “Plant response rating, Crabgrass” value (crabgrass; [6]) was 9 and the “Crabgrass plant response rating” value (crabgrass; [7]) was 7. The “Plant response rating, Soybean” value (soybean; [1]) was 2, the “Soybean plant response rating” value (soybean; [2]) was 3 and the “Soybean plant response rating” value (soybean; [3]) was 0. For the same molecule, the “Soybean plant response rating” value (soybean; [4]) was 0, the “Plant response rating, Soybean” value (soybean; [5]) was 0 and the “Plant response rating, Soybean” value (soybean; [6]) was 0. For the same molecule, the “Soybean plant response rating” value (soybean; [7]) was 6, the “Plant response rating, S. Flatsedge (0 to 10 scale, 0 is no effect, 10 is complete control)” value (smallflower flatsedge; Rate 62 g/ha, flood test species, Pre-emergence, visual evaluation after twelve to sixteen days) was 0 and the “S. Flatsedge plant response rating (0 to 10 scale, 0 is no effect, 10 is complete control)” value (smallflower flatsedge; Rate 125 g/ha, under heading Pre-emergence, flood test species, visual evaluation after twelve to sixteen days) was 0. The “S. Flatsedge plant response rating” value (smallflower flatsedge; Rate 250 g/ha, Pre-emergence (flood test species), scale 0 to 10, 0 is no effect, 10 is complete control) was 0, the “S. Flatsedge plant response rating” value (smallflower flatsedge; Rate 500 g/ha, Pre-emergence section of Table B, 0 to 10 scale (0 no effect, 10 complete control)) was 0 and the “Plant response rating, Wild oats” value (wild oat; [1]) was 0. For the same molecule, the “Wild oats plant response rating” value (wild oat; [2]) was 0, the “Wild oats plant response rating” value (wild oat; [3]) was 0 and the “Wild oats plant response rating” value (wild oat; [4]) was 0. The “Plant response rating, Wild oats” value (wild oat; [5]) was 2, the “Plant response rating, Wild oats” value (wild oat; [6]) was 3 and the “Wild oats plant response rating” value (wild oat; [7]) was 0.

With `Cc1ccccc1-n1c(=O)on(C(=O)N(c2ccc([N+](=O)[O-])cc2)C(C)C)c1=O` [Compound 44] the “Wheat plant response rating” value (wheat; [1]) was 0, the “Wheat plant response rating” value (wheat; [8]) was 0 and the “Plant response rating, Wheat” value (wheat; [9]) was 0. For the same molecule, the “Plant response rating, Wheat” value (wheat; [10]) was 0, the “Plant response rating, Wheat” value (wheat; [11]) was 0 and the “Wheat plant response rating” value (wheat; [12]) was 0. The “Wheat plant response rating” value (wheat; [13]) was 0, the “Crabgrass plant response rating” value (crabgrass; [1]) was 0 and the “Crabgrass plant response rating” value (crabgrass; [8]) was 0. The “Plant response rating, Crabgrass” value (crabgrass; [9]) was 0, the “Plant response rating, Crabgrass” value (crabgrass; [10]) was 0 and the “Plant response rating, Crabgrass” value (crabgrass; [11]) was 0. The “Crabgrass plant response rating” value (crabgrass; [12]) was 2, the “Crabgrass plant response rating” value (crabgrass; [13]) was 0 and the “Crabgrass plant response rating” value (crabgrass; Rate 500 g/ha, Postemergence, 0 to 10 scale (0 no effect, 10 complete control)) was 0. The “Soybean plant response rating” value (soybean; [1]) was 0, the “Soybean plant response rating” value (soybean; [8]) was 1 and the “Plant response rating, Soybean” value (soybean; [9]) was 0. The “Plant response rating, Soybean” value (soybean; [10]) was 0, the “Plant response rating, Soybean” value (soybean; [11]) was 0 and the “Soybean plant response rating” value (soybean; [12]) was 0. The “Soybean plant response rating” value (soybean; [13]) was 0, the “S. Flatsedge plant response rating” value (smallflower flatsedge; [1]) was 0 and the “S. Flatsedge plant response rating” value (smallflower flatsedge; [14]) was 0. For the same molecule, the “S. Flatsedge plant response rating” value (smallflower flatsedge; [15]) was 0, the “Wild oats plant response rating” value (wild oat; [1]) was 0 and the “Wild oats plant response rating” value (wild oat; [8]) was 0. For the same molecule, the “Plant response rating, Wild oats” value (wild oat; [10]) was 0, the “Plant response rating, Wild oats” value (wild oat; [11]) was 0 and the “Wild oats plant response rating” value (wild oat; [12]) was 0. For the same molecule, the “Wild oats plant response rating” value (wild oat; [13]) was 0.

In the case of `C=CCn1c(=O)on(C(=O)N(CC)C2CCCCC2)c1=O` [Compound 307], the “Wheat plant response rating” value (wheat; [3]) is reported as 0, the “Wheat plant response rating (0 to 10 scale)” value (wheat; Preemergence, Rate 125 g/ha) is reported as 0 and the “Wheat plant response rating” value (wheat; [11]) is reported as 0. For the same molecule, the “Wheat plant response rating” value (wheat; [6]) was 0, the “Wheat plant response rating” value (wheat; [16]) was 0 and the “Wheat plant response rating” value (wheat; [17]) was 0. For the same molecule, the “Plant response rating, Wheat” value (wheat; [18]) was 0, the “Crabgrass plant response rating” value (crabgrass; [3]) was 0 and the “Crabgrass plant response rating (0 to 10 scale)” value (crabgrass; Preemergence, Rate 125 g/ha) was 0. The “Crabgrass plant response rating” value (crabgrass; [11]) was 0, the “Crabgrass plant response rating” value (crabgrass; [6]) was 2 and the “Crabgrass plant response rating” value (crabgrass; [16]) was 0. The “Crabgrass plant response rating” value (crabgrass; [17]) was 0, the “Plant response rating, Crabgrass” value (crabgrass; [18]) was 0 and the “Soybean plant response rating” value (soybean; [3]) was 0. For the same molecule, the “Soybean plant response rating (0 to 10 scale)” value (soybean; Preemergence, Rate 125 g/ha) was 0, the “Soybean plant response rating” value (soybean; [11]) was 0 and the “Soybean plant response rating” value (soybean; [6]) was 0. The “Soybean plant response rating” value (soybean; [16]) was 0, the “Soybean plant response rating” value (soybean; [17]) was 2 and the “Plant response rating, Soybean” value (soybean; [18]) was 2. For the same molecule, the “S. Flatsedge plant response rating” value (smallflower flatsedge; Pre-emergence, Rate 1000 g/ha, scale 0 to 10 (0 no effect, 10 complete control)) was 0, the “S. Flatsedge plant response rating” value (smallflower flatsedge; Rate 125 g/ha, Pre-emergence, flood test species, scale 0 to 10 where 0 is no effect and 10 is complete control) was 0 and the “S. Flatsedge plant response rating” value (smallflower flatsedge; Rate 250 g/ha, Pre-emergence, flood-test species, scale 0 to 10, 0 is no effect, 10 is complete control) was 0. The “S. Flatsedge plant response rating” value (smallflower flatsedge; Rate 500 g/ha, Pre-emergence, flood test species, scale 0 to 10 (0 no effect, 10 complete control)) was 0, the “Wild oats plant response rating” value (wild oat; [3]) was 0 and the “Wild oats plant response rating (0 to 10 scale)” value (wild oat; Preemergence, Rate 125 g/ha) was 0. For the same molecule, the “Wild oats plant response rating” value (wild oat; [11]) was 0, the “Wild oats plant response rating” value (wild oat; [6]) was 8 and the “Wild oats plant response rating” value (wild oat; [16]) was 0. For the same molecule, the “Wild oats plant response rating” value (wild oat; [17]) was 0 and the “Plant response rating, Wild oats” value (wild oat; [18]) was 0.

`Cc1cc(C)c(-n2c(=O)on(C(=O)N(c3ccc(F)cc3)C(C)C)c2=O)c(C)c1` [Compound 60] was tested, and the “Wheat plant response rating” value (wheat; [1]) was 0, the “Wheat plant response rating” value (wheat; [8]) was 0 and the “Wheat plant response rating” value (wheat; [19]) was 0. For the same molecule, the “Plant response rating, Wheat” value (wheat; [10]) was 0, the “Plant response rating, Wheat” value (wheat; [11]) was 0 and the “Wheat plant response rating” value (wheat; [12]) was 0. The “Wheat plant response rating” value (wheat; [13]) was 0, the “Wheat plant response rating” value (wheat; [20]) was 0 and the “Crabgrass plant response rating” value (crabgrass; [1]) was 0. For the same molecule, the “Crabgrass plant response rating” value (crabgrass; [8]) was 1, the “Crabgrass plant response rating” value (crabgrass; [19]) was 0 and the “Plant response rating, Crabgrass” value (crabgrass; [10]) was 1. The “Plant response rating, Crabgrass” value (crabgrass; [11]) was 1, the “Crabgrass plant response rating” value (crabgrass; [12]) was 1 and the “Crabgrass plant response rating” value (crabgrass; [13]) was 0. The “Crabgrass plant response rating” value (crabgrass; [20]) was 2, the “Soybean plant response rating” value (soybean; [1]) was 2 and the “Soybean plant response rating” value (soybean; [8]) was 3. For the same molecule, the “Soybean plant response rating” value (soybean; [19]) was 0, the “Plant response rating, Soybean” value (soybean; [10]) was 0 and the “Plant response rating, Soybean” value (soybean; [11]) was 0. The “Soybean plant response rating” value (soybean; [12]) was 0, the “Soybean plant response rating” value (soybean; [13]) was 3 and the “Soybean plant response rating” value (soybean; [20]) was 3. For the same molecule, the “S. Flatsedge plant response rating” value (smallflower flatsedge; [1]) was 0, the “S. Flatsedge plant response rating” value (smallflower flatsedge; [14]) was 0 and the “S. Flatsedge plant response rating” value (smallflower flatsedge; Rate 500 g/ha, listed under Postemergence (flood test species), scale 0 to 10, 0 no effect, 10 complete control) was 0. For the same molecule, the “S. Flatsedge plant response rating” value (smallflower flatsedge; [15]) was 0, the “Wild oats plant response rating” value (wild oat; [1]) was 0 and the “Wild oats plant response rating” value (wild oat; [8]) was 0. The “Wild oats plant response rating” value (wild oat; [19]) was 0, the “Plant response rating, Wild oats” value (wild oat; [10]) was 0 and the “Plant response rating, Wild oats” value (wild oat; [11]) was 0. For the same molecule, the “Wild oats plant response rating” value (wild oat; [12]) was 0, the “Wild oats plant response rating” value (wild oat; [13]) was 0 and the “Wild oats plant response rating” value (wild oat; [20]) was 0.
